Test results taken from paper PMC5464333, “The binding orientations of structurally-related ligands can differ; A cautionary note” (Neuropharmacology, 2017).
Residue numbers refer to the chain shown, from its start. Read-outs that look alike come from different tables or passages of the source.

Tests used:
[1] = target: T1, 5-HT3A receptor wild type (Homo sapiens, UniProt P46098); test: Saturation radioligand binding, wild type 5-HT3A receptor in HEK293; settings: wild type 5-HT3 receptors
T1 construct: expressed in transfected cells; host or cells: HEK293, transient, pcDNA3.1
T1 sequence (P46098 24-478): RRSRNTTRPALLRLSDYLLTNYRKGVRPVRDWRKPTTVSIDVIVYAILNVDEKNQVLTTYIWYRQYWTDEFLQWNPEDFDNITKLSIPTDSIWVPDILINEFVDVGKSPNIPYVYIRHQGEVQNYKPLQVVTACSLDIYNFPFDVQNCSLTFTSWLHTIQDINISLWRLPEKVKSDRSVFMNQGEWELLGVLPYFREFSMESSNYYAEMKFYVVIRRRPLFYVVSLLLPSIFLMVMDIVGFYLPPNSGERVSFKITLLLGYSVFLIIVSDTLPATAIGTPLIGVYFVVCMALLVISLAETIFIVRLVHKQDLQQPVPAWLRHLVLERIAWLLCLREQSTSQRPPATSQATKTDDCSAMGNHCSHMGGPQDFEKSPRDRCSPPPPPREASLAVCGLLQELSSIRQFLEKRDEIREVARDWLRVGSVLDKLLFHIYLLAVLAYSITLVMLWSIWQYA
Method: (§1) Human 5-HT3A subunit cDNA (Accession: P46098, kindly provided by J. Peters, Dundee University, UK) was cloned into pcDNA3.1 for expression in HEK293 cells. […] Cells were transiently transfected with either of these cDNA constructs using polyethyleneimine (PEI: 25 kDa, linear, powder, Polysciences Inc., Eppelheim, Germany). 30 μl of PEI (1 mg ml^−1), 5 μg cDNA and 1 ml DMEM were incubated for 10 min at room temperature, added drop wise to a 90 mm plate of 70–80% conﬂuent HEK293 cells, and incubated for 2–3 days before use.
(§2) Transfected HEK 293 cells were scraped into 0.6 ml of ice-cold 10 mM HEPES buffer (pH 7.4) and frozen. After thawing, they were washed with HEPES buffer, homogenised by trituration through a 25 gauge (0.5 mm) needle, and 50 μg of cell suspension incubated in 0.5 ml HEPES buffer containing different concentrations of radioligand. […] Equilibrium reactions were incubated on ice for at least 1 h and terminated by vacuum filtration onto Whatman GF/B filters wetted with 0.3% polyethyleneimine, followed by two rapid washes with 2.5 ml ice cold buffer. Radioactivity was measured by scintillation in Ultima Gold XR (Perkin Elmer, Waltham, MA) using a Tri-Carb 2100 TR (PerkinElmer) scintillation counter. Final counts were monitored to ensure that binding never exceeded 10% of the added concentrations of radioligands.
(§3) All data were analysed using GraphPad Prism v5. […]

[2] = target: T2, 5-HT3A receptor I71C mutant (Homo sapiens, UniProt P46098, I66C); test: Saturation radioligand binding, 5-HT3A I71C mutant; settings: I71C versus wild type
T2 construct: expressed in transfected cells; host or cells: HEK293, transient, pcDNA3.1
T2 sequence (P46098 24-478 I66C): T1 sequence (P46098 24-478) with I43C
Method: (§4) Mutagenesis was performed using the QuikChange method (Agilent Technologies Inc., California, USA). Cysteine residues were substituted for amino acids throughout each of the binding loops A - E (Fig. 1). To facilitate comparisons with previous work, we have used the numbering of the equivalent residues in the mouse 5-HT3A subunit (Q6J1J7).
as §1
(§5) Transfected HEK 293 cells were scraped into 0.6 ml of ice-cold 10 mM HEPES buffer (pH 7.4) and frozen. […] Radioactivity was measured by scintillation in Ultima Gold XR (Perkin Elmer, Waltham, MA) using a Tri-Carb 2100 TR (PerkinElmer) scintillation counter. Final counts were monitored to ensure that binding never exceeded 10% of the added concentrations of radioligands.
as §3

α7 nACh receptor [3] = target: T3, α7 nACh receptor (UniProt P22770+P23979, M226I/T225I); test: Competition binding with [3H]epibatidine at α7 nACh receptors; design: a chimaera of the chick α7 nACh extracellular domain fused to the 5-HT3 transmembrane/intracellular domains; expressed in transfected cells; host or cells: HEK293 cells, transient transfection (pcDNA3.1, PEI); species or system chick
Method: as §1, with “J.” for “J. Peters, Dundee University, UK) was cloned into pcDNA3.1 for expression in HEK293 cells.”, “use. […] Non-specific binding was determined with 30 μM (-)/-nicotine. Equilibrium reactions were incubated on ice for at least 1 h and bound radioligand measured using the same method as described above.” for “use.”

α7 nACh receptor [4] = settings: low potency agonist, cited from earlier work
AChBP = AChBP used for co-crystallisation; ref Hibbs et al., 2009; read-out: affinity; cited from earlier work
[5] = target: T4, 5-HT3A receptor P155C mutant (Homo sapiens, UniProt P46098, P150C); test: Saturation radioligand binding, 5-HT3A P155C mutant; settings: P155C versus wild type
T4 construct: expressed in transfected cells; host or cells: HEK293, transient, pcDNA3.1
T4 sequence (P46098 24-478 P150C): T1 sequence (P46098 24-478) with P127C
Method: as §4, §1, §5, §3

[6] = target: T5, 5-HT3A receptor L126C mutant (Homo sapiens, UniProt P46098, L121C); test: Saturation radioligand binding, 5-HT3A L126C mutant; settings: L126C versus wild type
T5 construct: expressed in transfected cells; host or cells: HEK293, transient, pcDNA3.1
T5 sequence (P46098 24-478 L121C): T1 sequence (P46098 24-478) with L98C
Method: as §4, §1, §5, §3

α7 nACh receptor [7] = target: T3, α7 nACh receptor
Method: as §1, §2
All data were analysed using GraphPad Prism v5. Individual saturation binding experiments were fitted to the equation below and the fitted values averaged to yield mean ± sem of n independent experiments: y=[…] where Bmax is maximum binding at equilibrium, Kd is the equilibrium dissociation constant and [L] is the free concentration of radioligand. Affinities were compared using 1-way ANOVA and a Dunnett's Post-Test.

α7 nACh receptor [8] = settings: cited from earlier work
[9] = target: T6, 5-HT3A receptor R92C mutant (Homo sapiens, UniProt P46098, R87C); test: Saturation radioligand binding, 5-HT3A R92C mutant; settings: R92C versus wild type
T6 construct: expressed in transfected cells; host or cells: HEK293, transient, pcDNA3.1
T6 sequence (P46098 24-478 R87C): T1 sequence (P46098 24-478) with R64C
Method: as §4, §1, §5, §3

5-HT3 receptor = target: T7, 5-HT3 receptor (Homo sapiens, UniProt P46098); test: Affinities from binding tropisetron, granisetron and their analogues at 5-HT3 receptors; settings: for Ki / pKi Mean ± SEM: 5-HT3 receptor; for Fold change: Ki relative to parent scaffold
T7 construct: expressed in transfected cells; host or cells: HEK293, transient, pcDNA3.1
T7 sequence (P46098 24-478): T1 sequence (P46098 24-478)
Method: as §1, §2

[10] = test system: Untransfected HEK293 cells; test: Radioligand binding at untransfected HEK293 cells; design: species or system human
Method: Human embryonic kidney (HEK) 293 cells were grown on 90 mm round tissue culture plates as monolayers in DMEM/F12 (Gibco, Life Technologies, CA, USA) supplemented with 10% fetal bovine serum (FBS; Sigma Aldrich) at 37 °C in a moist atmosphere containing 5% CO2.

T3 sequence (P22770+P23979 fused P22770:T225I/P22770:M226I): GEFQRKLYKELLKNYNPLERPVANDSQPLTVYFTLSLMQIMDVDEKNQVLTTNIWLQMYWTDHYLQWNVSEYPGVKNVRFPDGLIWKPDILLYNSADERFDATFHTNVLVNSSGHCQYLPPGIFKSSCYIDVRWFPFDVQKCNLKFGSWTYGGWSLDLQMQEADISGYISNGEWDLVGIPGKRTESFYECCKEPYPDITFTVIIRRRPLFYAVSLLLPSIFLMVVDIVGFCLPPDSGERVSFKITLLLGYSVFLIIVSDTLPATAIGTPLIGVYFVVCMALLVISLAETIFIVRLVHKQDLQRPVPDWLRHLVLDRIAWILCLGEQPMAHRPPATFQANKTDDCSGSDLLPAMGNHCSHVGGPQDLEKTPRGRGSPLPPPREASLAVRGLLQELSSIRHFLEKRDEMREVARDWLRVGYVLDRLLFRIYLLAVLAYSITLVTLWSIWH

For CN1[C@@H]2CC[C@H]1C[C@@H](OC(=O)c1c[nH]c3ccccc13)C2 [tropisetron, Tropisetron], the “Non-specific binding, of total” value [1] was 30.3 ± 1.8%, the change in affinity [2] was 1.9 fold and the “difference in affinity at 5-HT3 versus α7 nACh receptors” value (α7 nACh receptor [3]; 5-HT3 versus α7 nACh) was over 1000 fold. For the same compound, the Ki (α7 nACh receptor [3]; competition with [3H]epibatidine) was 1580 ± 840 nM, the EC50 (α7 nACh receptor [4]; ref Macor et al., 2001) was 1300 nM and the EC50 (α7 nACh receptor [4]; ref Papke et al., 2005) was 600 nM. The Kd (AChBP) was 500 nM, the decrease in affinity [5] was 5 fold and the change in affinity [6] was 2.5 fold. For the same compound, the saturation binding (α7 nACh receptor [7]; α7 nACh receptors) was “undetectable”, the Ki (α7 nACh receptor [8]; α7 nACh receptors, ref Macor et al. (2001)) was 6.9 nM and the reduction in affinity [9] was 2.5 fold.
In the case of O=C(O[C@H]1C[C@H]2CC[C@@H](C1)N2Cc1ccccc1)c1c[nH]c2ccccc12 [Compound 4, (1R,3r,5S)-8-benzyl-8-azabicyclo[3.2.1]octan-3-yl 1H-indole-3-carboxylate], the Ki (5-HT3 receptor) is reported as 1440 nM, the “pKi Mean ± SEM” value (5-HT3 receptor) is reported as 5.84 ± 0.20 and the Fold change (5-HT3 receptor) is reported as 2007 fold.
With COc1cccc2c(C(=O)O[C@H]3C[C@H]4CC[C@@H](C3)N4C)c[nH]c12 [Compound 3, (1R,3r,5S)-8-methyl-8-azabicyclo[3.2.1]octan-3-yl 7-methoxy-1H-indole-3-carboxylate] the Ki (5-HT3 receptor) was 30.2 nM, the “pKi Mean ± SEM” value (5-HT3 receptor) was 7.52 ± 0.12 and the Fold change (5-HT3 receptor) was 42 fold.
With [3H]C([3H])([3H])N1C2CCC1CC(OC(=O)c1c[nH]c3ccccc13)C2 (centres unmarked) [[^3H]tropisetron] the saturable binding [10] was “no saturable binding” and the saturation binding (α7 nACh receptor [7]) was “could not be detected”.
In the case of COc1cccc2c(C(=O)N[C@H]3C[C@H]4CCC[C@@H](C3)N4C)nn(C)c12 [Compound 7, 7-methoxy-1-methyl-N-((1R,3r,5S)-9-methyl-9-azabicyclo[3.3.1]nonan-3-yl)-1H-indazole-3-carboxamide], the Ki (5-HT3 receptor) is reported as 120 nM, the “pKi Mean ± SEM” value (5-HT3 receptor) is reported as 6.92 ± 0.24 and the Fold change (5-HT3 receptor) is reported as 255 fold.
Clc1ccc(C2CC3CCC2N3)cn1 (centres unmarked) [[^3H]epibatidine] gave a Kd (α7 nACh receptor [7]) of 8.81 ± 0.13 nM.
For CN1C2CCC1CC(NC(=O)c1nn(C)c3ccccc13)C2 (centres unmarked) [LY-278,584], the binding (α7 nACh receptor [8]; α7 nACh receptor, ref Macor et al., 2001) is given as “cannot be detected”.
In the case of COc1ccc2c(C(=O)O[C@H]3C[C@H]4CC[C@@H](C3)N4C)c[nH]c2c1 [Compound 2, (1R,3r,5S)-8-methyl-8-azabicyclo[3.2.1]octan-3-yl 6-methoxy-1H-indole-3-carboxylate], the Ki (5-HT3 receptor) is reported as 182 nM, the “pKi Mean ± SEM” value (5-HT3 receptor) is reported as 6.74 ± 0.04 and the Fold change (5-HT3 receptor) is reported as 253 fold.
With COc1ccc2[nH]cc(C(=O)O[C@H]3C[C@H]4CC[C@@H](C3)N4C)c2c1 [Compound 1, (1R,3r,5S)-8-methyl-8-azabicyclo[3.2.1]octan-3-yl 5-methoxy-1H-indole-3-carboxylate] the Ki (5-HT3 receptor) was 95.5 nM, the “pKi Mean ± SEM” value (5-HT3 receptor) was 7.02 ± 0.03 and the Fold change (5-HT3 receptor) was 133 fold.
For CN1C2CCCC1CC(NC(=O)c1nn(C)c3ccccc13)C2 (centres unmarked) [[^3H]granisetron], the saturable binding [10] was “no saturable binding”.
